{
  "source": "patent US20120058500A1",
  "about": "“PLATELET AGGREGATION USING A MICROFLUIDICS DEVICE” (Monash University, priority 2009, published 2012)",
  "molecules": {"B1": {"name": "c7E3 Fab: anti-integrin αIIbβ3 ab c7E3, used to block the platelet integrin αIIbβ3 (antibody, chains of the INN, looked up, V domains shown)", "VH": "EVQLQQSGTVLARPGASVKMSCEASGYTFTNYWMHWVKQRPGQGLEWIGAIYPGNSDTSYIQKFKGKAKLTAVTSTTSVYMELSSLTNEDSAVYYCTLYDGYYVFAYWGQGTLVTVSA", "VL": "EIVLTQSPVTLSVTPGDSVSLSCRASRDISNNLHWFQQTSHESPRLLIKYASQSMSGIPSRFSGSGSGTDFTLSINSVETEDFGMYFCQQTNSWPYTFGGGTKLEIK", "modifications": "Fab"}},
  "key": {"[1]": {"system": "platelet aggregation in human blood", "conditions": "treated samples versus normal samples, specific microchannel geometries", "text": "It will be further appreciated that the device and method of the invention can be used to assay the effectiveness of particular drugs or substances."}, "[2]": {"system": "platelet aggregation in human whole blood", "experiment": "Anti-platelet inhibitor effects in microchannel, c85 g30 e85 100-100 μm format", "type": "cell-based", "conditions": "10 mins pre-treatment, hirudin anti-coagulated whole blood, FIG. 22", "procedure": "(§1) Blood samples from subjects were taken via venisection of the antecubital vein using a 10 ml syringe fitted with a 19 guage needle containing 800 U/ml hirudin as anticoagulant.\n(§2) Blood perfusion studies through the device were carried out using hiridin (800 U/ml) anticoagulated whole blood taken from consenting human donors. Whole blood samples were incubated at 37° C. for 10 minutes with the lipophylic membrane dye DiOC6 (1 μg/ml) or DiICl2 (1 μg/ml) to allow the cells to be more readily visualised through the device.\nThe micro-geometry device used in the present example has a contraction angle (θc) of 85°, an expansion angle (θe) of 85°, a gap width of 30 μm, a gap length of 15 μm and channel entry and exit width of 100 μm (c85 g30 e85 100-100 μm format).\nThe following anti-platelet drugs were used either alone or in combination: • 1. Hirudin: Human whole blood anti-coagulated with Hirudin (800 U/ml) as a control. • 2. Hirudin+MRS: Human (hirudin anti-coagulated) whole blood pre-treated for 10 mins with 100 μM of the P2Y1 adenosine-5′-diphosphate (ADP) antagonist N6-methyl-2′-deoxyadenosine-3′,5′-bisphosphate (MRS2179). • 3. Hirudin+2Me: Human (hirudin anti-coagulate) whole blood pre-treated for 10 mins with 10 μM of the P2Y12 (ADP) antagonist 2-methylthio-AMP (2MesAMP). • 4. […]"}, "[3]": {"system": "platelet aggregation in whole blood", "experiment": "Real-time epi-fluorescence imaging of DiOC6 labeled whole blood perfusion through the c60g20e60 microchannel", "type": "cell-based, human", "conditions": "20 μg/ml; blood also pre-treated with apyrase, MRS2179, 2-MeSAMP, Indomethacin, hirudin; 16 μL/min, input strain rate 1,800 s-1", "procedure": "as §1, §2\nFIG. 20a represents real-time epi-fluorescence imaging of DiOC6 labeled whole blood perfusion at a constant flow rate of 16 μL/min (input strain rate=1,800 s−1) through the c60g20e60 geometric format over a 10 min timeframe, following pre-treatment for 10 minutes with the platelet inhibitors apyrase (0.02 U/ml), N6-methyl-2′-deoxyadenosine-3′,5′-bisphosphate (MRS2179 at 100 μM) and 2-methylthio-AMP (2-MeSAMP at 10 μM) to block ADP; Indomethacin (10 μM) to block TXA2; and hirudin (800 U/ml) to block thrombin. […] To investigate the platelet adhesion receptors mediating the aggregation response, whole blood samples were pretreated with the anti-integrin αIIbβ3 ab c7E3 (20 μg/ml) to block the platelet integrin αIIbβ3 or the anti-GPIb IgG Alma12 (50 μg/ml) to block platelet GPIb/V/IX engagement of VWF."}, "[4]": {"system": "platelet aggregation in hirudin-anticoagulated whole blood", "experiment": "Whole blood perfusion through step geometry micro-shear gradient device (c90 g10 e60 100-700 μm format), platelet aggregation traces", "type": "cell-based, human", "conditions": "whole blood treated 10 minutes with 30 μg/ml prior to perfusion; input shear rate 1,800 s^-1; FIG. 11c", "procedure": "as §1, §2\nFIG. 11a is a representative micrograph (40× magnification) sequence of human (hirudin anti-coagulated) blood perfusion through a micro-shear gradient device consisting of an in-flow (entry) width of 100 μm, a contraction angle (θc) of 90°, a gap height of 10 μm, an expansion angle (θe)) of 60°, and an expansion/exit width of 700 μm. The grey arrow denotes the point of initial aggregation [t=12 sec], the black arrow designates the limit of thrombus growth in the expansion zone (representative of n=3 experiments).\nFIG. 11c comprises representative aggregation traces showing the response of whole blood perfusion through the PDMS microchannel device depicted in FIG. 11a. […]"}},
  "note": "Positions of bridges follow the written chain, without caps; N, C: chain ends. Non-standard residues stand in square brackets, D forms with d. Residues, ends and D or L forms follow the SMILES beside them. hArg = N=C(N)NCCCC[C@H](N)C(=O)O; Mpa = O=C(O)CCS",
  "data": [
    {"molecule": "N=C(N)NCCCC[C@@H]1NC(=O)CCSSC[C@@H](C(N)=O)NC(=O)[C@@H]2CCCN2C(=O)[C@H](Cc2c[nH]c3ccccc23)NC(=O)[C@H](CC(=O)O)NC(=O)CNC1=O", "note": "[integrilin] ([Mpa][hArg]GDWPC-NH2; disulfide 1-7)", "values": [
      {"measurement": "platelet aggregation profile versus normal samples", "setting": "[1]", "result": "different platelet aggregation profile"}
    ]},
    {"molecule": "CSc1nc(N)c2ncn([C@@H]3O[C@H](COP(=O)(O)O)[C@@H](O)[C@H]3O)c2n1", "note": "[inhibitor of the P2Y12 (ADP) receptor, 2-methylthio-AMP]", "values": [
      {"measurement": "reduction in overall aggregation in the device", "setting": "[2]; 10 μM", "result": 50, "unit": "%"}
    ]},
    {"molecule": "CNc1ncnc2c1ncn2[C@H]1C[C@H](OP(=O)(O)O)[C@@H](COP(=O)(O)O)O1", "note": "[MRS, N6-methyl-2′-deoxyadenosine-3′,5′-bisphosphate]", "values": [
      {"measurement": "effect on the aggregation profile in the device", "setting": "[2]; 100 μM, compared with the P2Y12 inhibitor", "result": "much more marked effect"}
    ]},
    {"molecule": "B1", "values": [
      {"measurement": "platelet aggregation within the c60g20e60 geometry", "setting": "[3]", "result": "completely inhibited"},
      {"measurement": "initial recruitment at the stenosis apex", "setting": "[4]", "result": "markedly delayed"},
      {"measurement": "overall aggregation", "setting": "[4]", "result": "suppressed"}
    ]}
  ]
}
